Measurements: patent US9150554B2, “Fused ring inhibitors of hepatitis C” (Presidio Pharmaceuticals, Inc., priority 2009, dated 2015)

Tested on: HCV 1b_Huh-Luc/Neo-ET cell line persistently expressing a bicistronic genotype 1b replicon in Huh 7 cells
Experiment: HCV replicon assay, luciferase enzyme activity readout
Assay type: cell-based
Settings: Hepatitis C virus, 72 h incubation, average EC50 range, read-out: Inhibition of HCV genotype 1b
Description: Biological activity of the compounds of the invention was determined using an HCV replicon assay. The HCV 1b_Huh-Luc/Neo-ET cell line persistently expressing a bicistronic genotype 1b replicon in Huh 7 cells was obtained from ReBLikon GMBH. This cell line was used to test compound inhibition using luciferase enzyme activity readout as a measurement of compound inhibition of replicon levels.
On Day 1 (the day after plating cells), each compound is added in triplicate to the cells. Plates are incubated for 72 h prior to determining luciferase levels. Enzyme activity was measured using a Bright-Glo Kit (cat. number E2620) manufactured by Promega Corporation. The following equation was used to generate a percent control value for each compound. % Control=(Compound Luciferase Level/Control Luciferase Level)*100
The EC50 value was determined using GraphPad Prism and the following equation: Y=Bottom asymptote+(Top asymptote−Bottom asymptote)/(1+10^((Log EC50−X)*HillSlope))
EC50 values of compounds are determined several times in the replicon assay to generate average EC50 values. […]

Structure (SMILES)	EC50
COC(=O)N[C@H](C(=O)N1CCC[C@H]1c1ncc(-c2ccc3c(c2)Cc2cc(F)c(-c4cnc([C@@H]5CCCN5C(=O)[C@@H](NC(=O)OC)[C@@H](C)OC)[nH]4)cc2O3)[nH]1)[C@@H](C)OC [Compound 40]	< 1 nM
CC[C@H](C)[C@H](NC(=O)OC)C(=O)N1CCC[C@H]1c1ncc(-c2ccc3c(c2)Cc2cc(F)c(-c4cnc([C@@H]5CCCN5C(=O)[C@@H](NC(=O)OC)[C@@H](C)OC)[nH]4)cc2O3)[nH]1 [Compound 41]	< 1 nM
COC(=O)N[C@H](C(=O)N1CCC[C@H]1c1ncc(-c2ccc3c(c2)Cc2cc(F)c(-c4cnc([C@@H]5CCCN5C(=O)[C@@H](NC(=O)OC)[C@@H](C)OC)[nH]4)cc2O3)[nH]1)C1CCOCC1 [Compound 42]	< 1 nM
COC[C@H](NC(=O)OC)C(=O)N1CCC[C@H]1c1ncc(-c2ccc3c(c2)Cc2cc(F)c(-c4cnc([C@@H]5CCCN5C(=O)[C@@H](NC(=O)OC)[C@@H](C)OC)[nH]4)cc2O3)[nH]1 [Compound 43]	< 1 nM
COC(=O)N[C@H](C(=O)N1CCC[C@H]1c1ncc(-c2cc3c(cc2F)Cc2cc(-c4cnc([C@@H]5CCCN5C(=O)[C@@H](NC(=O)OC)C5CCOCC5)[nH]4)ccc2O3)[nH]1)C(C)C [Compound 44]	< 1 nM
COC[C@H](NC(=O)OC)C(=O)N1CCC[C@H]1c1ncc(-c2ccc3c(c2)Cc2cc(F)c(-c4cnc([C@@H]5CCCN5C(=O)[C@@H](NC(=O)OC)C(C)C)[nH]4)cc2O3)[nH]1 [Compound 45]	< 1 nM
CC[C@H](C)[C@H](NC(=O)OC)C(=O)N1CCC[C@H]1c1ncc(-c2ccc3c(c2)Oc2ccc(-c4cnc([C@@H]5CCCN5C(=O)[C@@H](NC(=O)OC)[C@@H](C)CC)[nH]4)cc2O3)[nH]1 [Compound 46]	< 1 nM
COC(=O)N[C@H](C(=O)N1CCCC[C@H]1c1ncc(-c2ccc3c(c2)Oc2ccc(-c4cnc([C@@H]5CCCCN5C(=O)[C@@H](NC(=O)OC)C(C)C)[nH]4)cc2O3)[nH]1)C(C)C [Compound 47]	< 1 nM
COC(=O)N[C@@H](C(=O)N1CCCC[C@H]1c1ncc(-c2ccc3c(c2)Oc2ccc(-c4cnc([C@@H]5CCCCN5C(=O)[C@H](NC(=O)OC)c5ccccc5)[nH]4)cc2O3)[nH]1)c1ccccc1 [Compound 48]	< 1 nM
COC(=O)N[C@H](C(=O)N1CCC[C@H]1c1ncc(-c2ccc3oc4cc(-c5cnc([C@@H]6CCCN6C(=O)[C@@H](NC(=O)OC)C(C)C)[nH]5)c(Cl)cc4c(=O)c3c2)[nH]1)C(C)C [Compound 49]	< 1 nM
COC(=O)N[C@H](C(=O)N1CCC[C@H]1c1ncc(-c2ccc3oc4cc(-c5cnc([C@@H]6CCCN6C(=O)[C@@H](NC(=O)OC)[C@@H](C)OC)[nH]5)c(Cl)cc4c(=O)c3c2)[nH]1)[C@@H](C)OC [Compound 50]	< 1 nM
CC[C@H](C)[C@H](NC(=O)OC)C(=O)N1CCC[C@H]1c1ncc(-c2ccc3oc4cc(-c5cnc([C@@H]6CCCN6C(=O)[C@@H](NC(=O)OC)[C@@H](C)CC)[nH]5)c(Cl)cc4c(=O)c3c2)[nH]1 [Compound 51]	< 1 nM
COC(=O)N[C@H](C(=O)N1CCC[C@H]1c1ncc(-c2ccc3oc4cc(-c5cnc([C@@H]6CCCN6C(=O)[C@@H](NC(=O)OC)C6CCOCC6)[nH]5)c(Cl)cc4c(=O)c3c2)[nH]1)C1CCOCC1 [Compound 52]	< 1 nM
CC[C@H](C)[C@H](NC(=O)OC)C(=O)N1CCC[C@H]1c1ncc(-c2ccc3c(c2)Cc2cc(F)c(-c4cnc([C@@H]5CCCN5C(=O)[C@@H](NC(=O)OC)[C@@H](C)CC)[nH]4)cc2O3)[nH]1 [Compound 53]	< 1 nM
CC[C@H](C)[C@H](NC(=O)OC)C(=O)N1CCC[C@H]1c1ncc(-c2cc3c(cc2F)Cc2cc(-c4cnc([C@@H]5CCCN5C(=O)[C@@H](NC(=O)OC)[C@@H](C)OC)[nH]4)ccc2O3)[nH]1 [Compound 54]	< 1 nM
C=CC[C@H](NC(=O)OC)C(=O)N1CCC[C@H]1c1ncc(-c2ccc3c(c2)Oc2ccc(-c4cnc([C@@H]5CCCN5C(=O)[C@H](CC=C)NC(=O)OC)[nH]4)cc2O3)[nH]1 [Compound 55]	< 1 nM
C#CC[C@H](NC(=O)OC)C(=O)N1CCC[C@H]1c1ncc(-c2ccc3c(c2)Oc2ccc(-c4cnc([C@@H]5CCCN5C(=O)[C@H](CC#C)NC(=O)OC)[nH]4)cc2O3)[nH]1 [Compound 56]	< 1 nM
[2H]C([2H])([2H])C([2H])(C([2H])([2H])[2H])[C@]([2H])(NC(=O)OC)C(=O)N1CCC[C@H]1c1ncc(-c2ccc3c(c2)Oc2ccc(-c4cnc([C@@H]5CCCN5C(=O)[C@@]([2H])(NC(=O)OC)C([2H])(C([2H])([2H])[2H])C([2H])([2H])[2H])[nH]4)cc2O3)[nH]1 [Compound 57]	< 1 nM
COC(=O)N[C@@H](C(=O)N1CCC[C@H]1c1ncc(-c2ccc3oc4cc(-c5cnc([C@@H]6CCCN6C(=O)[C@H](NC(=O)OC)c6ccccc6)[nH]5)c(Cl)cc4c(=O)c3c2)[nH]1)c1ccccc1 [Compound 58]	< 1 nM
CC[C@H](C)[C@H](NC(=O)OC)C(=O)N1CCC[C@H]1c1ncc(-c2cc3c(cc2F)Cc2cc(-c4cnc([C@@H]5CCCN5C(=O)[C@@H](NC(=O)OC)C5CCOCC5)[nH]4)ccc2O3)[nH]1 [Compound 59]	< 1 nM
CC[C@H](C)[C@H](NC(=O)OC)C(=O)N1CCC[C@H]1c1ncc(-c2cc3c(cc2F)Cc2cc(-c4cnc([C@@H]5CCCN5C(=O)[C@H](COC)NC(=O)OC)[nH]4)ccc2O3)[nH]1 [Compound 60]	< 1 nM
COC(=O)N[C@H](C(=O)N1CCC[C@H]1c1ncc(-c2ccc3c(c2)Cc2cc(Cl)c(-c4cnc([C@@H]5CCCN5C(=O)[C@@H](NC(=O)OC)C(C)C)[nH]4)cc2O3)[nH]1)C(C)C [Compound 61]	< 1 nM
COC(=O)N[C@H](C(=O)N1CCC[C@H]1c1ncc(-c2ccc3c(c2)Cc2cc(Cl)c(-c4cnc([C@@H]5CCCN5C(=O)[C@@H](NC(=O)OC)[C@@H](C)OC)[nH]4)cc2O3)[nH]1)[C@@H](C)OC [Compound 62]	< 1 nM
CC[C@H](C)[C@H](NC(=O)OC)C(=O)N1CCC[C@H]1c1ncc(-c2ccc3c(c2)Cc2cc(Cl)c(-c4cnc([C@@H]5CCCN5C(=O)[C@@H](NC(=O)OC)[C@@H](C)CC)[nH]4)cc2O3)[nH]1 [Compound 63]	< 1 nM
COC(=O)N[C@H](C(=O)N1CCOC[C@H]1c1ncc(-c2ccc3c(c2)Oc2ccc(-c4cnc([C@@H]5COCCN5C(=O)[C@@H](NC(=O)OC)C(C)C)[nH]4)cc2O3)[nH]1)C(C)C [Compound 64]	< 1 nM
COC(=O)N[C@@H](C(=O)N1CCOC[C@H]1c1ncc(-c2ccc3c(c2)Oc2ccc(-c4cnc([C@@H]5COCCN5C(=O)[C@H](NC(=O)OC)c5ccccc5)[nH]4)cc2O3)[nH]1)c1ccccc1 [Compound 65]	< 1 nM
COC(=O)N[C@H](C(=O)N1CSC[C@H]1c1ncc(-c2ccc3c(c2)Oc2ccc(-c4cnc([C@@H]5CSCN5C(=O)[C@@H](NC(=O)OC)C5CCCC5)[nH]4)cc2O3)[nH]1)C1CCCC1 [Compound 66]	< 1 nM
CC[C@H](C)[C@H](NC(=O)OC)C(=O)N1CSC[C@H]1c1ncc(-c2ccc3c(c2)Oc2ccc(-c4cnc([C@@H]5CSCN5C(=O)[C@@H](NC(=O)OC)[C@@H](C)CC)[nH]4)cc2O3)[nH]1 [Compound 67]	< 1 nM
